Assay results as given in patent US20200392126A1, “ISOXAZOLYL COMPOUNDS AS RECEPTOR MODULATING COMPOUNDS AND METHODS AND USES THEREOF” (BIONOMICS LIMITED, priority 2017, published 2020).

Biological target: T1, hnAChR α7/ric3 (Homo sapiens, UniProt P36544)
T1 construct: expressed in transfected cells
Assay: IonFlux HT electrophysiological recording of hnAChR α7/ric3 currents, inhibition of ACh (200 μM, EC80) peak current
Type: cell-based
Conditions: not given
Method: All wells included a final DMSO concentration of 0.33% including all control wells.
The solutions for recording hnAChR α7/ric3 currents were:
All recordings were obtained from a holding potential of −60 mV.
Compounds were assayed using bump-in protocol. The compound addition sequence that was used for all additions was the same for all assays. One addition of the EC80 concentration of ACh (200 μM) was added to establish baseline response. The test compounds were tested on cells in increasing concentrations of 0.12, 0.37, 1.1, 3.3, 10 μM±200 μM ACh for all compounds. Each compound was applied for one minutes followed by the addition of 200 μM ACh for 1 second.
Peak inward currents in response to the ACh additions in the presence of increasing concentrations of compound were measured.
Potentiation of ACh Response=(I^Compound^+^ACh/I^ACh)
All data were first exported to an Excel compatible data file and then analyzed using Graph Pad Prism software.

T1 sequence (P36544 23-502): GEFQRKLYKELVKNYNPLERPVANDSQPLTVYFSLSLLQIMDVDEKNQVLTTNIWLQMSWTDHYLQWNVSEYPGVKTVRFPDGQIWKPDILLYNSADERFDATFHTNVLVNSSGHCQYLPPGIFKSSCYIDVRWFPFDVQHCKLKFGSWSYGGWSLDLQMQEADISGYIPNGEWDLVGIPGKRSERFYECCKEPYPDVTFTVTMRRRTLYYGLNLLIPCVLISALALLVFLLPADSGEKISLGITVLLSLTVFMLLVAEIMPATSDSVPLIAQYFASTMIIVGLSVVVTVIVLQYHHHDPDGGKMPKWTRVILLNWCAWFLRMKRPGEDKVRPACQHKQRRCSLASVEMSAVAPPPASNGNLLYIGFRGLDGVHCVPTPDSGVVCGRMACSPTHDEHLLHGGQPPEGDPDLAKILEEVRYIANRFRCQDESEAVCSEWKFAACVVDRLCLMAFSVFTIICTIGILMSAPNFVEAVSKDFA

Structure (SMILES) | IC50 [nM]
Cc1nocc1S(=O)(=O)NC1(c2ccccc2)CCCCC1 [Compound 1, 3-Methyl-N-(1-phenylcyclohexyl)isoxazole-4-sulfonamide] | 5700
Cc1nocc1S(=O)(=O)N1CCN(c2ccc(F)cc2)CC1 [Compound 8, 4-(4-(4-Fluorophenyl)piperazin-1-ylsulfonyl)-3-methylisoxazole] | 2200

Same assay, conditions: hnAChR α7/ric3; 0.12-10 μM compound, 1 min preincubation, then 200 μM ACh for 1 s; holding potential −60 mV; read-out: IC50

IC50 [nM] | Structure (SMILES)
1700 | Cc1nocc1S(=O)(=O)NCCc1ccccc1 [Compound 2, 3-Methyl-N-phenethylisoxazole-4-sulfonamide]
2200 | Cc1nocc1S(=O)(=O)NCCc1ccc(F)cc1 [Compound 3, N-(4-Fluorophenethyl)-3-methylisoxazole-4-sulfonamide]
400 | Cc1nocc1S(=O)(=O)N1CCC(c2ccc(F)cc2)CC1 [Compound 7]
6500 | Cc1nocc1S(=O)(=O)N1CCN(c2ccccn2)CC1 [Compound 10, 3-Methyl-4-(4-(pyridin-2-yl)piperazin-1-ylsulfonyl)isoxazole]
2900 | Cc1nocc1S(=O)(=O)N1CCc2ccccc2CC1 [Compound 11, 3-Methyl-4-((1,2,4,5-tetrahydro-3H-benzo[d]azepin-3-yl)sulfonyl)isoxazole]
